Biological target: T1, P2X purinoceptor 3 (Homo sapiens, UniProt P56373)
T1 sequence (P56373 whole entry): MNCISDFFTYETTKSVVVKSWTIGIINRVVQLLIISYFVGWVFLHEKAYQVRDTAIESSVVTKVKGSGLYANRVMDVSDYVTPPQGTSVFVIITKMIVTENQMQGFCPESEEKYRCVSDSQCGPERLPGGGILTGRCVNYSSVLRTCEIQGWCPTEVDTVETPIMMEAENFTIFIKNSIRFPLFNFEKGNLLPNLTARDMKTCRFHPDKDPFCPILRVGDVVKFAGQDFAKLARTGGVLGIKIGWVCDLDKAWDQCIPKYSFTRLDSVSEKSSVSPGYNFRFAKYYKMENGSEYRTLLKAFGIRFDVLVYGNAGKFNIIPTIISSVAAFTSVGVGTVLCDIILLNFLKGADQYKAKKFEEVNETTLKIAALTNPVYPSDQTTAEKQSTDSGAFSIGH
Experiment: Inhibition Assay: Stably expressing cell line (C6BU-1 cell transfected with human P2X3 receptor gene (GenBank accession number Y07683) was used. The cells were seeded in a 96-well microtiter plate at a concentration of 8000 cells/well and cultured in the medium (8.3% fetal bovine serum, 8.3% horse serum, 1% antibiotic and antifungal in DMEM) for one day at 37° C. under 5% carbon dioxide atmosphere. The medium was replaced with 4 μM Fluo-3-AM solution (20 mM HEPES, 137 mM NaCl, 2.7 mM KCl, 0.9 in M MgCl2, 5.0 mM CaCl2, 5.6 D-glucose, 2.5 mM probenecid, 1.0% BSA, and 0.08% Pluronic F-127, pH 7.5) and incubated at 37° C. under 5% dioxide carbon atmosphere for one hour. The plate was washed with washing buffer (20 mM HEPES, 137 mM NaCl, 2.7 mM KCl, 0.9 mM MgCl2, 5.0 mM CaCl2, 5.6 mM D-glucose, 2.5 mM probenecid, pH 7.5), and each well was added with 40 μL of this buffer. The plate was placed in High-Throughput Screening System FDSS 3000 (Hamamatsu Photonics K.K.). Measurement of fluorescence inte

Compound | IC50 [nM]
CCOC(=O)c1cnc(Nc2ccc(OC(C)C)c(F)c2)n(Cc2ccc(Cl)cc2)c1=O | 71
CCOC(=O)Nc1cnc(Nc2ccc(OC(C)C)c(F)c2)n(Cc2ccc(Cl)cc2)c1=O | 33
CCOC(=O)c1cn(Cc2ccc(Cl)cc2)c(Nc2ccc(OC(C)C)c(F)c2)nc1=O | 108

— ChEMBL document CHEMBL3886411, “Heterocyclic derivative and pharmaceutical composition comprising the same” (2015)
